The values that follow come from patent US10757937B2, “Sulfonamides that activate ABA receptors” (The Regents of the University of California, priority 2014, dated 2020).

In one assay the test system is Arabidopsis seed germination and hypocotyl growth. Put plainly: Arabidopsis seed germination and hypocotyl growth. The note with it: Germination Inhibition II; tested at 10 and 50 uM; lowest concentration that inhibited hypocotyl growth in wells where seeds germinated; − = none. Type of assay: in vivo. Here is the method: We germinated seeds from wild type on ½× strength Murashige and Skoog salts growth medium containing either 10 or 50 μM for all 62 compounds as well as 1 μM (+)-ABA and mock controls. […] To investigate if the any of the compounds are sufficient to control vegetative ABA responses, we treated three week old Arabidopsis plants with aqueous solutions containing 0.02% Silwet and either 50 μM of selected N-acylsulfonamides, 50 μM ABA or 0.1% DMSO (the carrier solvent for the compounds tested). The leaf temperatures were subsequently examined using a thermal imaging camera 24 hours after treatment. It is well known that ABA-induced guard cell closure reduces transpiration, which leads to increases in leaf temperatures. It has been estimated that a 1° C. increase in leaf temperature correlates with a decrease in transpiration rates by approximately 50% (Sirault et al., 2009). Since guard cell aperture is the primary determinant of transpiration rates, thermal imaging is a useful way to indirectly infer relative transpiration rates and, indirectly, relative degrees of guard cell opening at the whole plant level.
(§1) Additional compounds were tested for biological activity following the procedures of Example 1 with minor modifications.
For the germination inhibition experiment, the compounds were tested at 10 and 50 uM. The amounts shown are the lowest of the two concentrations that either inhibited germination or hypocotyl growth in wells where seeds germinated.
For the germination test, the compounds were tested at 1, 5, 10, 25 and 50 uM. The amounts shown are the lowest of the concentrations that either inhibited germination or hypocotyl growth in the wells where seeds germinated.
As to `N#Cc1ccc(CS(=O)(=O)NC(=O)C2(c3ccccc3)CC2)cc1` [Compound 27], the “Hypocotyl Growth Inhibition” value was found to be 50 µM.
With `CC(C)(C(=O)NS(=O)(=O)Cc1ccc(C#N)cc1)c1cccc(Cl)c1` [Compound 15], the “Hypocotyl Growth Inhibition” value is 10 µM.
On to `Cc1cccc(C2(C(=O)NS(=O)(=O)Cc3ccc(C#N)cc3)CC2)c1` [Compound 38], for which the “Hypocotyl Growth Inhibition” value is 50 µM.
In the case of `N#Cc1ccc(CS(=O)(=O)NC(=O)C2(c3cccc(F)c3)CCC2)cc1` [Compound 33], the “Hypocotyl Growth Inhibition” value stood at 10 µM.
For the compound `COc1ccc(C(C)(C)C(=O)NS(=O)(=O)Cc2ccc(C#N)cc2)cc1` [Compound 22], the “Hypocotyl Growth Inhibition” value is 10 µM.

Still in this assay, the particulars now being: Germination Inhibition II; tested at 10 and 50 uM; lowest of the two concentrations that inhibited; − = none.
Regarding `CC(C)(C)c1ccc(C2(C(=O)NS(=O)(=O)Cc3ccc(C#N)cc3)CC2)cc1` [Compound 34], the “Germination Inhibition” value amounted to 50 µM.

The assay is the same for the next values; noted with them: Table VIII; tested at 10 or 50 μM, ABA at 1 μM; lowest inhibiting concentration; − = none; read-out: Germination Inhibition.
Take `CC(C)(C)c1ccc(C2(C(=O)NS(=O)(=O)Cc3ccc(C#N)cc3)CC2)cc1` [Compound 34]: the minimal effective concentration stood at 50 µM.

Still in this assay, the particulars now being: Table VIII; tested at 10 or 50 μM; lowest inhibiting concentration; − = none; read-out: Hypocotyl Growth Inhibition.
For `N#Cc1ccc(CS(=O)(=O)NC(=O)C2(c3ccccc3)CC2)cc1` [Compound 27], the minimal effective concentration turned out to be 50 µM.
Take `CC(C)(C(=O)NS(=O)(=O)Cc1ccc(C#N)cc1)c1cccc(Cl)c1` [Compound 15]: the minimal effective concentration is reported as 10 µM.
For the compound `Cc1cccc(C2(C(=O)NS(=O)(=O)Cc3ccc(C#N)cc3)CC2)c1` [Compound 38], the minimal effective concentration is given as 50 µM.
`N#Cc1ccc(CS(=O)(=O)NC(=O)C2(c3cccc(F)c3)CCC2)cc1` [Compound 33]: the minimal effective concentration came out at 10 µM.
For the compound `COc1ccc(C(C)(C)C(=O)NS(=O)(=O)Cc2ccc(C#N)cc2)cc1` [Compound 22], the minimal effective concentration is listed as 10 µM.

In another assay the target is T1, PYL8 (Arabidopsis thaliana, UniProt Q9FGM1).
T1 construct: 6X-His; made in house; host or cells: E. coli BL21[DE3]pLysS
T1 sequence (Q9FGM1 1-188): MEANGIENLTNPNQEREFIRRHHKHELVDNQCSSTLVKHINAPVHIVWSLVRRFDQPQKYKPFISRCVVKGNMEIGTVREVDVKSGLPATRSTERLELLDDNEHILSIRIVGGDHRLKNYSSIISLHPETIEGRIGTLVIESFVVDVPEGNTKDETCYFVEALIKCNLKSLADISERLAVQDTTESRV
T1 sequence (Q9CAJ0 23-511 partner): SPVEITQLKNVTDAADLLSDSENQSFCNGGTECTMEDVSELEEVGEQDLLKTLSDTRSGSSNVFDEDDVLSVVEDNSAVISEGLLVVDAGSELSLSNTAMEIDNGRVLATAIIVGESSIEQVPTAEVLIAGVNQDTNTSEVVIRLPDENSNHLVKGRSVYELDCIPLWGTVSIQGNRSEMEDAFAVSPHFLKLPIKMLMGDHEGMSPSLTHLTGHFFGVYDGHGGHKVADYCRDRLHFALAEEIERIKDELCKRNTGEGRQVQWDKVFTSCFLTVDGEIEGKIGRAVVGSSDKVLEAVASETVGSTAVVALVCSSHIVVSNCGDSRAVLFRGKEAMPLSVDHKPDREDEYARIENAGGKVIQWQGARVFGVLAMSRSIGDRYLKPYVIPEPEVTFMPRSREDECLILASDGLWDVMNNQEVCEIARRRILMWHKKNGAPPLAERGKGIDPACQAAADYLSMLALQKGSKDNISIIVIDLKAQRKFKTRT
Put plainly: receptor-mediated PP2C (HAB1) inhibition in vitro assay. The note with it: compound at 25 μM; control without agonist = 100%. Type of assay: biochemical. Here is the method:
(§2) A family of 62 structurally related N-acyl sulfonamides (Tables I-V) were tested for ABA agonist activity using multiple receptor-mediated PP2C inhibition in vitro assays (Park et al., 2009). […] The constructs utilized for protein expression have been previously described (Okamoto et al. 2013). For constructs encoding 6X-His-fusion proteins (all receptors except PYL11), the coding sequences were of the receptors were cloned in the vector pET28, expressed in BL21[DE3]pLysS E. coli host cells at 18° C. overnight, and subsequently purified from sonicated lysates using Ni-NTA agarose (Qiagen, USA), according to the manufacturer's instructions. PYL11 was constructed as a maltose binding protein fusion in the vector pMAL-c, expressed in BL21┌DE3┐pLysS host cells and purified using amylose resin (New England Biolabs) as described by the manufacturer. Recombinant GST-HAB1 was expressed and purified as described previously (Park et al., 2009). PP2C activity assays were conducted using the fluorogenic phosphatase substrate 4-methylumbelliferyl-phosphate. Recombinant receptors and HAB1 were used to examine ligand-induced PP2C inactivation in response to multiple test compounds. Enzyme inhibition assays were conducted using the following assay conditions: 50 nM GST-PP2C, 100 mM Tris-OAc (pH 7.9), 100 mM NaCl, 1 mM MnCl2, 1% β-mercaptoethanol. […] Because of this, the ratio of each receptor used in the PP2C-inhibitions assays was established empirically as the minimum fold-excess of receptor required to elicit maximal PP2C inhibition at a saturating ABA concentration (10 μM).
(§3) Based on this criterion, we used a ratio of 2:1 receptor in the assays described herein.
(§4) Using the above assay conditions, compounds were tested at 25 μM for agonist activity on PYL4, PYL5, PYL8 and PYL9. […] Consequently, a subset of the compounds was tested at multiple concentrations against 11 receptors so that IC50 values and receptor selectivity profiles could be examined. […] Thus, the N-acylsulfonamide agonists disclosed are selective for monomeric receptors.
as §1
(§5) For these in vitro receptor assays, the compounds listed were tested in in vitro PP2C inhibition assays with 50 uM of the test compound except for ABA (10 uM). IC50s were calculated from dose curves, but only for selected compounds.
Turning to `CC(C)(C)c1ccc(C2(C(=O)NS(=O)(=O)Cc3ccc(C#N)cc3)CC2)cc1` [Compound 34], the PP2C Activity (25 μm) PYL8 turned out to be 103%.
Compound `N#Cc1ccc(CS(=O)(=O)NC(=O)C2(c3ccccc3)CC2)cc1` [Compound 27] came in with a PP2C Activity (25 μm) PYL8 of 77%.
Compound `CC(C)(C(=O)NS(=O)(=O)Cc1ccc(C#N)cc1)c1cccc(Cl)c1` [Compound 15] came in with a PP2C Activity (25 μm) PYL8 of 57%.
`Cc1cccc(C2(C(=O)NS(=O)(=O)Cc3ccc(C#N)cc3)CC2)c1` [Compound 38] registered a PP2C Activity (25 μm) PYL8 of 77%.
Turning to `N#Cc1ccc(CS(=O)(=O)NC(=O)C2(c3cccc(F)c3)CCC2)cc1` [Compound 33], the PP2C Activity (25 μm) PYL8 worked out at 39%.
The compound `COc1ccc(C(C)(C)C(=O)NS(=O)(=O)Cc2ccc(C#N)cc2)cc1` [Compound 22] returned a PP2C Activity (25 μm) PYL8 of 91%.

The next assay has as its target T2, PYL9 (Arabidopsis thaliana, UniProt Q84MC7).
T2 construct: 6X-His; made in house; host or cells: E. coli BL21[DE3]pLysS
T2 sequence (Q84MC7 1-187): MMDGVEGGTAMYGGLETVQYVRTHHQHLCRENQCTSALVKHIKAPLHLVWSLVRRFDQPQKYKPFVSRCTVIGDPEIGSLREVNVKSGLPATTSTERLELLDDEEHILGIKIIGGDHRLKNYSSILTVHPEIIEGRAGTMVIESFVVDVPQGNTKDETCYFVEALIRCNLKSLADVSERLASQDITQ
T2 sequence (Q9CAJ0 23-511 partner): T1 sequence (Q9CAJ0 23-511 partner)
The description is as above. Type of assay: biochemical. The note with it: compound at 25 μM; control without agonist = 100%. Here is the method:
as §2, §3, §4, §1, §5
In the case of `CC(C)(C)c1ccc(C2(C(=O)NS(=O)(=O)Cc3ccc(C#N)cc3)CC2)cc1` [Compound 34], the PP2C Activity (25 μm) PYL9 was 107%.
The compound `N#Cc1ccc(CS(=O)(=O)NC(=O)C2(c3ccccc3)CC2)cc1` [Compound 27] showed a PP2C Activity (25 μm) PYL9 of 63%.
The compound `CC(C)(C(=O)NS(=O)(=O)Cc1ccc(C#N)cc1)c1cccc(Cl)c1` [Compound 15] gave a PP2C Activity (25 μm) PYL9 of 46%.
In turn, `Cc1cccc(C2(C(=O)NS(=O)(=O)Cc3ccc(C#N)cc3)CC2)c1` [Compound 38] had a PP2C Activity (25 μm) PYL9 of 66%.
With `N#Cc1ccc(CS(=O)(=O)NC(=O)C2(c3cccc(F)c3)CCC2)cc1` [Compound 33], the PP2C Activity (25 μm) PYL9 worked out at 24%.
The compound `COc1ccc(C(C)(C)C(=O)NS(=O)(=O)Cc2ccc(C#N)cc2)cc1` [Compound 22] gave a PP2C Activity (25 μm) PYL9 of 92%.

For a further assay, the target named is T3, PYL5 (Arabidopsis thaliana, UniProt Q9FLB1).
T3 construct: 6X-His; made in house; host or cells: E. coli BL21[DE3]pLysS
T3 sequence (Q9FLB1 1-203): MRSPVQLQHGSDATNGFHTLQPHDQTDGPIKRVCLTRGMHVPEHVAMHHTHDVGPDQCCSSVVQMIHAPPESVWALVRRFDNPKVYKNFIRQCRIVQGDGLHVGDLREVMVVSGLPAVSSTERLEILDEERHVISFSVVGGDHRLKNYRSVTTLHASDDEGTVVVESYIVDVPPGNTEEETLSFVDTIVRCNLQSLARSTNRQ
T3 sequence (Q9CAJ0 23-511 partner): T1 sequence (Q9CAJ0 23-511 partner)
The description is as above. Type of assay: biochemical. The note with it: compound at 25 μM; control without agonist = 100%. Here is the method: as §2, §3, §4, §1, §5
With `CC(C)(C)c1ccc(C2(C(=O)NS(=O)(=O)Cc3ccc(C#N)cc3)CC2)cc1` [Compound 34], the PP2C Activity (25 μm) PYL5 was determined as 99%.
Consider `N#Cc1ccc(CS(=O)(=O)NC(=O)C2(c3ccccc3)CC2)cc1` [Compound 27], for which the PP2C Activity (25 μm) PYL5 is 39%.
The compound `CC(C)(C(=O)NS(=O)(=O)Cc1ccc(C#N)cc1)c1cccc(Cl)c1` [Compound 15] came in with a PP2C Activity (25 μm) PYL5 of 51%.
Compound `Cc1cccc(C2(C(=O)NS(=O)(=O)Cc3ccc(C#N)cc3)CC2)c1` [Compound 38] had a PP2C Activity (25 μm) PYL5 of 41%.
`N#Cc1ccc(CS(=O)(=O)NC(=O)C2(c3cccc(F)c3)CCC2)cc1` [Compound 33] had a PP2C Activity (25 μm) PYL5 of 81%.
In turn, `COc1ccc(C(C)(C)C(=O)NS(=O)(=O)Cc2ccc(C#N)cc2)cc1` [Compound 22] had a PP2C Activity (25 μm) PYL5 of 85%.

The target of the next assay is T4, PYL4 (Arabidopsis thaliana, UniProt O80920).
T4 construct: 6X-His; made in house; host or cells: E. coli BL21[DE3]pLysS
T4 sequence (O80920 1-207): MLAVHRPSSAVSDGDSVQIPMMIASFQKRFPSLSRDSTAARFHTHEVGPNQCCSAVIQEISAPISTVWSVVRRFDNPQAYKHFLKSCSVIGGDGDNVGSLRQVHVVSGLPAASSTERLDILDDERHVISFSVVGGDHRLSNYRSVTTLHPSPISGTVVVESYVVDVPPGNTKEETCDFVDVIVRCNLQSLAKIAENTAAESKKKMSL
T4 sequence (Q9CAJ0 23-511 partner): T1 sequence (Q9CAJ0 23-511 partner)
Described as above. Type of assay: biochemical. The note with it: compound at 25 μM; control without agonist = 100%. Here is the method: as §2, §3, §4, §1, §5
`CC(C)(C)c1ccc(C2(C(=O)NS(=O)(=O)Cc3ccc(C#N)cc3)CC2)cc1` [Compound 34] gave a PP2C Activity (25 μm) PYL4 of 95%.
For the compound `N#Cc1ccc(CS(=O)(=O)NC(=O)C2(c3ccccc3)CC2)cc1` [Compound 27], the PP2C Activity (25 μm) PYL4 turned out to be 97%.
Take `CC(C)(C(=O)NS(=O)(=O)Cc1ccc(C#N)cc1)c1cccc(Cl)c1` [Compound 15]: the PP2C Activity (25 μm) PYL4 came out at 96%.
`Cc1cccc(C2(C(=O)NS(=O)(=O)Cc3ccc(C#N)cc3)CC2)c1` [Compound 38] had a PP2C Activity (25 μm) PYL4 of 92%.
On the same count and under the same terms, next, `N#Cc1ccc(CS(=O)(=O)NC(=O)C2(c3cccc(F)c3)CCC2)cc1` [Compound 33]: 98%; `COc1ccc(C(C)(C)C(=O)NS(=O)(=O)Cc2ccc(C#N)cc2)cc1` [Compound 22]: 95%.
